# Test results published in patent US7547804B2, “Compounds, compositions, and methods employing same” (Myriad Genetics, Inc., priority 2002, dated 2009).
# Test system: LNCaP cell lines
# Assay: WST-1 Cell Proliferation and Viability Assay
# Type: cell-based
# Conditions: Homo sapiens; LNCaP cells, compound incubation 18-72 hours
# Experimental: WST-1 Cell Proliferation and Viability Assay
# Cell proliferation and cell viability was assessed using the tetrazolium salt WST-1 (Roche Applied Science, Indianapolis Ind.). The assay is based on the cleavage of WST-1 (light red) by mitochondrial dehydrogenase causing the formation of formazan (dark red), which can be measured on an optical density (O.D.) reader. LNCaP cell lines were plated in 96 well tissue culture plates (Corning Costar, N.Y.) at a density of 5000 cells/well in 150 μl complete media phenol-red free (RPMI-1640 [Invitrogen, Carlsbad Calif.] and 10% fetal calf serum). This plate is termed the assay plate. After the cells are plated, they are then incubated overnight at 37 degrees Celsius in a humidified chamber containing 5% CO2 (incubator).
# Compounds are added to the assay plate in 50 μl of complete media and 0.4% DMSO (v:v) making the final DMSO concentration 0.1%. The assay plate is then returned to the incubator for 18-72 hours. WST-1 reagent is then added (20 μl/well) and the plate is placed on an ELISA plate shaker for 30 minutes at room temperature. Plates are then transferred back to the incubator for an additional 3 hours. Plates are then read on a 96 well plate O.D. reader at A490-A650.
row,EC50,Structure (SMILES)
1,30 µM,O=C(NCc1cccc(-c2ccccc2)c1)c1cc(Br)ccc1O [Compound 192]
2,0.9 µM,O=C(Nc1cc(C(F)(F)F)ccc1OCCC(F)(F)F)c1cc(Cl)ccc1O [Compound 271]
3,3.3 µM,COC(=O)CCc1ccccc1CCOc1ccc(Cl)cc1NC(=O)c1cc(Cl)ccc1O [Compound 303]
4,3 µM,Cc1cccc(COc2ccc(Cl)cc2NC(=O)c2cc(Cl)ccc2O)c1 [Compound 311]
5,0.9 µM,O=C(Nc1cc(C(F)(F)F)ccc1OCCc1cccs1)c1cc(Cl)ccc1O [Compound 244]
6,3 µM,O=C(Nc1cc(C(F)(F)F)ccc1NCc1cccc2ccccc12)c1cc(Cl)ccc1O [Compound 277]
7,0.9 µM,O=C(Nc1cc(OC(F)(F)F)ccc1OCCc1cccc(C(F)(F)F)c1)c1cc(Cl)ccc1O [Compound 262]
8,19.7 µM,Nc1cc(Cl)cc(C(=O)Nc2cc(Cl)ccc2OCCc2ccccc2)c1O [Compound 330]
9,17 µM,COc1ccccc1CCOc1cccc(NC(=O)c2cccc(-c3ccccc3)c2O)c1 [Compound 221]
10,8 µM,COc1ccccc1CCOc1cccc(NC(=O)c2cc(-c3cc4ccccc4o3)ccc2O)c1 [Compound 339]
11,3 µM,CC1CN(c2ccc(NC(=O)c3cc(Cl)ccc3O)c(OCCc3ccccc3C(F)(F)F)c2)CC(C)O1 (stereo not shown) [Compound 241]
12,2 µM,O=C(Nc1cc(C(F)(F)F)cc(Cl)c1OCCc1ccccc1C(F)(F)F)c1cc(Cl)ccc1O [Compound 251]
13,2 µM,CC(C)COc1ccc(Cl)cc1NC(=O)c1cc(Cl)ccc1O [Compound 246]
14,19 µM,CN(CC(=O)O)c1ccc(NC(=O)c2cc(Cl)ccc2O)c(OCCc2cccc(C(F)(F)F)c2)c1 [Compound 375]
15,6.2 µM,COC(=O)CCc1ccc(OCCc2ccccc2)c(NC(=O)c2cc(Cl)ccc2O)c1 [Compound 326]
16,6 µM,O=C(Nc1cc(COCc2ccccc2)ccc1Cl)c1cc(Cl)ccc1O [Compound 279]

row,EC50,Structure (SMILES)
1,4 µM,O=C(Nc1cccc(OC2CCCCC2c2ccc(Cl)cc2)c1)c1cc(Cl)ccc1O (stereo not shown) [Compound 282]
2,1.6 µM,O=C(Nc1cc(Cl)ccc1OCc1ccc(C(F)(F)F)cc1)c1cc(Cl)ccc1O [Compound 328]
3,1 µM,O=C(Nc1cc(C(F)(F)F)ccc1Oc1ccc(Cl)c2ccccc12)c1cc(Cl)ccc1O [Compound 264]
4,2 µM,O=C(Nc1ccc(Cl)cc1OCCc1ccc(Cl)cc1)c1cc(Cl)ccc1O [Compound 250]
5,6 µM,COc1cccc(-c2ccc(O)c(C(=O)Nc3cccc(OCCc4ccccc4OC)c3)c2)c1 [Compound 235]
6,3 µM,O=C(Nc1cc(OC2CCCCC2c2ccccc2)ccc1Cl)c1cc(Cl)ccc1O (stereo not shown) [Compound 281]
7,8 µM,CCN(CC)CCN(CC)c1ccc(NC(=O)c2cc(Cl)ccc2O)c(OCCc2cccc(C(F)(F)F)c2)c1 [Compound 361]
8,3.1 µM,COC(=O)[C@H]1CCCN1c1ccc(NC(=O)c2cc(Cl)ccc2O)c(OCCc2cccc(C(F)(F)F)c2)c1 [Compound 359]
9,0.9 µM,O=C(Nc1cc(C(F)(F)F)ccc1OCCc1ccc(Cl)c(Cl)c1)c1cc(Cl)ccc1O [Compound 249]
10,18 µM,O=C(NCc1cccc(-c2cccc(C(F)(F)F)c2)c1)c1cc(Cl)ccc1O [Compound 304]
11,0.9 µM,O=C(Nc1cc(C(F)(F)F)ccc1OCCc1ccccc1Cl)c1cc(Cl)ccc1O [Compound 247]
12,0.9 µM,O=C(Nc1cc(C(F)(F)F)ccc1OCCOc1ccccc1)c1cc(Cl)ccc1O [Compound 297]
13,2 µM,CN(CC(=O)OC(C)(C)C)c1ccc(NC(=O)c2cc(Cl)ccc2O)cc1C(F)(F)F [Compound 372]
14,33 µM,CC(C)c1cccc(C(=O)Nc2cccc(OCCc3ccccc3)c2)c1O [Compound 201]
15,28 µM,COc1ccccc1CCOc1cccc(NC(=O)c2cc(Cl)cc([N+](=O)[O-])c2O)c1 [Compound 336]
16,0.5 µM,O=C(Nc1cc(C(F)(F)F)ccc1OCCc1cccc(Cl)c1)c1cc(Cl)ccc1O [Compound 248]

# Continued, compound first:
row,Structure (SMILES),EC50
1,O=C(Nc1cc(OCCc2ccccc2)c(Cl)cc1Cl)c1cc(Cl)ccc1O [Compound 92],2 µM
2,CC(Cc1ccccc1)Oc1cccc(NC(=O)c2cc(Cl)ccc2O)c1 (stereo not shown) [Compound 95],6 µM
3,O=C(c1ccccc1)c1cccc(NC(=O)c2cc(Cl)ccc2O)c1 [Compound 21],9 µM
4,Cc1cc(OCCc2ccc(CC(F)(F)F)cc2)c(NC(=O)c2cc(Cl)ccc2O)cc1Cl [Compound 164],1 µM
5,O=C(Nc1cccc(Cl)c1OCCc1ccccc1C(F)(F)F)c1cc(Cl)ccc1O [Compound 137],5 µM
6,Cc1ccc(CCOc2ccc(Cl)cc2NC(=O)c2cc(Cl)ccc2O)cc1 [Compound 78],2 µM
7,O=C(Nc1ccccc1OCCc1ccccc1)c1cc(Cl)ccc1O [Compound 80],4 µM
8,CC(C)c1ccc(COc2cccc(NC(=O)c3cc(Cl)ccc3O)c2)cc1 [Compound 85],6 µM
9,Cc1cc(C)cc(COc2cccc(NC(=O)c3cc(Cl)ccc3O)c2)c1 [Compound 105],8 µM
10,Cc1c(NC(=O)c2cc(Cl)ccc2O)cccc1OCCc1ccccc1 [Compound 48],7 µM
11,O=C(Nc1ccc(OC2CCCC[C@H]2c2ccccc2)cc1)c1cc(Cl)ccc1O (stereo partly shown) [Compound 97],3 µM
12,CCN(CC)CCOc1cccc(CNc2cccc(NC(=O)c3cc(Cl)ccc3O)c2)c1 [Compound 30],50 µM
13,COc1ccccc1CCOc1ccc(Cl)c(NC(=O)c2cc(Cl)ccc2O)c1 [Compound 32],6 µM
14,O=C(Nc1cc(Cl)ccc1OCCc1ccccc1)c1cc(Cl)ccc1O [Compound 22],2 µM
15,COc1ccc(OCCc2ccccc2)c(NC(=O)c2cc(Cl)ccc2O)c1 [Compound 147],6 µM
16,O=C(Nc1cccc(OCc2ccccc2)c1)c1cc(Cl)ccc1O [Compound 15],12 µM
17,O=C(Nc1ccc(C(F)(F)F)cc1)c1cc(Cl)ccc1O [Compound 61],1 µM
18,O=C(Nc1cc(Cl)ccc1OCCc1ccccc1)c1cnc2cc(C(F)(F)F)ccc2c1O [Compound 166],10 µM
19,O=C(Nc1cccc(CCOc2ccccc2)c1)c1cc(Cl)ccc1O [Compound 18],10 µM
20,O=C(Nc1cc(OCCc2ccccc2)ccc1Cl)c1cc(Cl)ccc1O [Compound 27],4 µM

row,Structure (SMILES),EC50
1,O=C(Nc1ccc(OCCc2ccccc2)cc1C(F)(F)F)c1cc(Cl)ccc1O [Compound 156],16 µM
2,O=C(NCCc1ccc(Oc2ccccc2)cc1)c1cc(Cl)ccc1O [Compound 54],13 µM
3,CCC(COc1ccc(C)c(NC(=O)c2cc(Cl)ccc2O)c1)c1ccccc1 (stereo not shown) [Compound 128],2 µM
4,O=C(Nc1cccc([N+](=O)[O-])c1)c1cc(Cl)ccc1O [Compound 23],4 µM
5,O=C(Nc1cc(Cl)ccc1OCCc1ccc(C(F)(F)F)cc1)c1cc(Cl)ccc1O [Compound 99],1 µM
6,O=C(Nc1cc(C(F)(F)F)ccc1OCCc1ccccc1)c1cc(Cl)ccc1O [Compound 104],0.8 µM
7,CC(=O)Nc1cccc(C(=O)Nc2cccc(OCCc3ccccc3)c2)c1O [Compound 2],23 µM
8,O=C(Nc1cc(Cl)ccc1OCCc1cccc(F)c1)c1cc(Cl)ccc1O [Compound 111],1 µM
9,O=C(NCc1cccc(Oc2ccccc2)c1)c1cc(Cl)ccc1O [Compound 67],50 µM
10,O=C(Nc1cccc(NCc2ccc3c(c2)OCO3)c1)c1cc(Cl)ccc1O [Compound 11],40 µM
11,Cc1oc(-c2ccccc2)nc1CCOc1ccc(Cl)cc1NC(=O)c1cc(Cl)ccc1O [Compound 132],5 µM
12,COc1ccc(O)c(C(=O)Nc2cccc(OCCc3ccccc3)c2)c1 [Compound 187],30 µM
13,N#Cc1ccc(OCCc2ccccc2C(F)(F)F)c(NC(=O)c2cc(Cl)ccc2O)c1 [Compound 140],3 µM
14,COc1ccc(C(=O)Nc2cccc(OCCc3ccccc3)c2)c(O)c1 [Compound 185],32 µM
15,CN(C)c1ccc(CCOc2cccc(NC(=O)c3cc(Cl)ccc3O)c2)cc1 [Compound 47],4 µM
16,O=C(Nc1cc(Cl)ccc1OCCc1ccc(F)cc1)c1cc(Cl)ccc1O [Compound 106],1 µM
17,O=C(Nc1ccc(Cl)cc1)c1cc(Cl)ccc1O [Compound 93],4 µM
18,O=C(Nc1ccc(OCCc2ccccc2)cc1)c1cc(Cl)ccc1O [Compound 63],20 µM
19,Cc1ccc(CCOc2cccc(NC(=O)c3cc(Cl)ccc3O)c2)cc1 [Compound 59],10 µM

# Same assay, conditions: Homo sapiens; LNCaP cells; flagged "Estimated": based on actual data at different concentrations
row,EC50,Structure (SMILES)
1,30 µM,COc1ccccc1CCOc1cccc(N(C)C(=O)c2cc(Cl)ccc2O)c1 [Compound 228]
2,22 µM,O=C(Nc1cccc(OCCc2ccccc2)c1)c1cccc(O)c1 [Compound 227]
3,2 µM,O=C(Nc1cc(C(F)(F)F)ccc1OCC(F)(F)F)c1cc(Cl)ccc1O [Compound 278]
4,47 µM,O=C(NCc1cccc(-c2ccccc2)c1)c1ccccc1O [Compound 199]
5,20 µM,O=C(NCc1cccc(-c2ccccc2)c1)c1cc(-c2ccc(F)cc2F)ccc1O [Compound 220]

# Second part, the compound before the results:
row,Structure (SMILES),EC50
1,O=C(Nc1cccc(OCc2ccc3c(c2)OCO3)c1)c1cc(Cl)ccc1O [Compound 86],30 µM
2,O=C(NCc1ccccc1OCCc1ccccc1)c1cc(Cl)ccc1O [Compound 116],30 µM
3,O=C(Nc1cccc(OCCc2ccccc2)c1)c1cc(Cl)ccc1O [Compound 29],30 µM
